Results as given in EP2785358B1, “INSULIN-MIMETICS AS THERAPEUTIC ADJUNCTS FOR BONE REGENERATION” (priority 2011, dated 2013).
“And” between values parts separate entries of the source, which are not always exact repeats. Equal entries are not always repeated. Marks after values point to notes of the source that are not given here.

Experiments:
[1] = Vanadium quantification in femur by atomic absorption spectrophotometry; format: in vivo, BB Wistar rats; conditions: 0.1 mL of 4.35 mg/mL VAC solution (approximately 1.5 mg VAC/kg) into femoral canal
Protocol: BB Wistar rats were anesthetized and confirmed to be non-responsive to external stimuli before beginning the surgical procedure. The anesthetized rat was be exsanguinated by cardiac puncture using a 10 ml syringe with a 22 gauge needle after shallow puncture just lateral to the sternum and through the intercostal space. After puncturing the dermis and cardiac wall slight backpressure was placed on the plunger to withdraw blood from the ventricle. The collected blood was transferred to an appropriate container used for collection of plasma (heparinized) or serum (non-heparinized). Following the cardiac puncture, the rats were euthanized via cervical dislocation.
The excised femora were be stripped of adhering muscle, tendon and other tissue after which the bones were rinsed three times with deionized water, and then placed on glassine paper and air dried. The pin was rinsed once and stored in a clean conical tube. The liver, kidneys, brain, and left humerous collected were rinsed 3x and air dried. The objective of "drying" was to remove adhering water droplets after the water rinse and to allow the true tissue weight to be recorded as precisely as possible. […] The organs were then placed into a low temperature (-80 degrees Celsius) freezer for storage until future analysis (quantification not currently planned). […]

[2] = system: femur fractures; assay: Early immunohistochemistry (BrdU cell proliferation), local VAC; format: in vivo, BB Wistar rats
Protocol: At days 2, 4, and 7, and 10, animals were injected intraperitoneally with 30 mg/kg of 5-bromo-2'deoxyuridine (BrdU, Sigma Chemical Co., St. Louis, MO) one hour prior to sacrifice to label replicating cells as a measure of cellular proliferation. The fractured femurs were resected and fixed in formalin, decalcified (Immunocal, Decal Corp., Tallman, NY), embedded in paraffin, and sectioned longitudinally (5 µm thick). Cells positive for BrdU incorporation were detected by immunohistochemistry using commercially available reagents (DAKO Corp., Carpentaria, California). Digital images of each fracture were collected with an Olympus BH2-RFCA microscope equipped with a Nikon DXM1200f camera. For each specimen, callus area was measured and the BrdU positive cells in the periosteal callus region were counted using Image Pro Plus software. All BrdU positive cells in the external callus to a maximum of 1 cm proximal and distal of the fracture site and 3 mm from the external surface of the femur were counted. The number of BrdU positive cells was normalized per unit area of callus and only one datum per rat (BrdU positive cells per mm2) was used for the statistical analysis.

[3] = system: femur fractures; assay: Long-term radiographic analysis at twelve weeks, local VAC; format: in vivo, normal (non-diabetic) rats; conditions: for ectopic bone formation on radiographs: twelve weeks post-fracture
Protocol: The effect of local vanadium therapy on healing of femur fractures in normal (non-diabetic) rats was measured by radiographic analysis.

[4] = system: femur fractures; assay: Histomorphometry, local VAC without a carrier; format: in vivo, BB Wistar rats; conditions: for % Cartilage / % Mineralized Tissue / Callus Area: no carrier
Excerpt: Two independent reviewers were used to minimize inconsistencies.

[5] = system: femur fractures; assay: Torsional mechanical testing, local VAC without a carrier in normal rats; format: in vivo, non-diabetic BB Wistar rats; set-up: Percent Effective Shear Modulus / Percent Effective Shear Stress: scale not given: direction of the effect not stated beside the values
Protocol: A closed mid-diaphyseal fracture surgery was performed on the right femur of each rat as described previously. […] A closed, midshaft fracture was then created using a three-point bending fracture instrument (BBC Specialty Automotive, Linden NJ) and confirmed with X-rays immediately post-fracture.

[6] = VAC 1.5 mg/kg local, 10 Days Post-Fracture
[7] = VAC 1.5 mg/kg local, 14 Days Post-Fracture
[8] = VAC 1.5 mg/kg local, 21 Days Post-Fracture
[9] = VAC 3.0 mg/kg local, 10 Days Post-Fracture
[10] = VAC 3.0 mg/kg local, 14 Days Post-Fracture
[11] = VAC 3.0 mg/kg local, 21 Days Post-Fracture
[12] = VAC 0.5 mg/kg local, no carrier, normal rats, 4 weeks
[13] = VAC 0.5 mg/kg local, no carrier, normal rats, 4 weeks, normalized to intact femur
[14] = VAC 1.5 mg/kg Autoclaved, no carrier, four weeks
[15] = VAC 1.5 mg/kg Gamma Irradiated, no carrier, four weeks
[16] = VAC 1.5 mg/kg local, no carrier, normal rats, 5 weeks
[17] = VAC 1.5 mg/kg local, rats of advanced age (190-195 days), four weeks
[18] = VAC 1.5 mg/kg without sterilization, no carrier, four weeks
[19] = VAC 1.5 mg/kg without sterilization, no carrier, four weeks, normalized to intact femur
[20] = VAC 3.0 mg/kg local, no carrier, normal rats, 4 weeks
[21] = VAC 3.0 mg/kg local, no carrier, normal rats, 4 weeks, normalized to intact femur

## CC(=O)/C=C(/C)[O-].CC(=O)/C=C(/C)[O-].[O]=[V+2] [VAC, Vanadyl acetylacetonate]
[1]
  time locally injected VAC remains bound within the fractured femora: approximately two weeks
[2]; seven and ten days post-fracture, p < 0.05
  cell proliferation (BrdU positive cells) in the periosteum versus control: significantly more proliferating cells per unit area
[2]; two or four days post-fracture
  cell proliferation (BrdU positive cells) versus control: no significant differences
[3]; VAC high (3.0 mg/kg)
  ectopic bone formation on radiographs: no evidence of ectopic bone formation
[3]; VAC low (1.5 mg/kg)
  ectopic bone formation on radiographs: no evidence of ectopic bone formation
[3]; local VAC, throughout fracture healing, normal remodeling
  toxic/carcinogenic effect (remodeling of femora): no evidence of a toxic/carcinogenic effect
[4]; [6]
  % Cartilage: 30.6 ± 12.4^∗ (n=7) %
  % Mineralized Tissue: 15.8 ± 5.1 (n=7) %
  Callus Area: 18.4 ± 3.6 (n=7) mm^2
[4]; [7]
  % Cartilage: 14.2 ± 4.9 (n=5) %
  % Mineralized Tissue: 21.3 ± 2.1^∗ (n=5) %
  Callus Area: 21.7 ± 5.0 (n=5) mm^2
[4]; [8]
  % Cartilage: 11.0± 4.7 (n=5) %
  % Mineralized Tissue: 32.7 ± 2.9^∗ (n=5) %
  Callus Area: 20.1 ± 4.5 (n=5) mm^2
[4]; VAC 1.5 mg/kg, 7 days (and 10 days), p < 0.05
  percent cartilage compared to controls: statistically higher
[4]; [9]
  % Cartilage: 17.8± 5.5 (n=5) %
  % Mineralized Tissue: 15.2 ± 3.4 (n=5) %
  Callus Area: 18.6 ± 2.9 (n=5) mm^2
[4]; [10]
  % Cartilage: 13.0 ± 6.4 (n=5) %
  % Mineralized Tissue: 21.9 ± 3.2^∗ (n=5) %
  Callus Area: 19.3 ± 3.1 (n=5) mm^2
[4]; [11]
  % Cartilage: 9.4± 5.7 (n=4) %
  % Mineralized Tissue: 33.4 ± 5.2 (n=4) %
  Callus Area: 20.3± 5.1 (n=4) mm^2
[5]; VAC 0.25 mg/kg local, no carrier, normal rats, 4 weeks, normalized to intact femur
  Percent maximum torsional rigidity: 67 ± 21 ^∗ Percent
[5]; [12]
  Maximum Torque to Failure: 362 ± 49 ^∗,# Nmm
  Maximum Torsional Rigidity: 45,877 ± 13,079^∗ Nmm^2/rad
[5]; [13]
  Percent Maximum Torque to Failure: 72 ± 19 ^∗ Percent
  Percent maximum torsional rigidity: 103 ± 23 ^∗,# Percent
[5]; [14]
  Effective Shear Modulus: 9.6×10^2 ± 7.8×10^2 MPa
  Maximum Torsional Rigidity: 3.4×10^4 ± 1.5×10^4* Nmm^2/rad and 3.4×10^4 ± 1.5×10^4∗ Nmm^2/rad
[5]; VAC 1.5 mg/kg Autoclaved, no carrier, four weeks, normalized to intact femur
  Percent maximum torsional rigidity: 70 ± 31 ^∗ Percent
[5]; [15]
  Effective Shear Modulus: 7.9×10^2 ± 2.4×10^2 MPa
  Maximum Torsional Rigidity: 2.6×10^4 ± 3.7×10^3 Nmm^2/rad
[5]; [16]
  Maximum Torque to Failure: 471 ± 91 Nmm
  Maximum Torsional Rigidity: 34,522 ± 8,347^* Nmm^2/rad
[5]; [17]
  Effective Shear Modulus: 1.3×10^3 ± 1.3×10^3 MPa
  Effective Shear Stress: 43± 17 MPa
  Maximum Torsional Rigidity: 3.0×10^4 ± 1.8×10^4 Nmm^2/rad
  Mean Angle at Failure: 12± 4 degrees
[5]; VAC 1.5 mg/kg local, rats of advanced age (190-195 days), four weeks, normalized to intact femur
  Percent Maximum Torque to Failure: 44 ± 10^∗ Percent
[5]; [18]
  Effective Shear Modulus: 2.5×10^3 ± 2.4×10^3 MPa
  Effective Shear Stress: 69 ± 59 MPa
  Maximum Torque to Failure: 329 ± 117 ^∗ Nmm
  Maximum Torsional Rigidity: 3.5×10^4 ± 1.7×10^4* Nmm^2/rad and 3.5×10^4 ± 1.7×10^4∗ Nmm^2/rad
[5]; [19]
  Percent Effective Shear Modulus: 23 ± 12 ^∗ Percent
  Percent maximum torsional rigidity: 76 ± 28 ^∗ Percent
[5]; [20]
  Effective Shear Modulus: 2,948 ± 1,218 ^∗ MPa
  Effective Shear Stress: 101 ± 18 ^∗,#,& MPa
  Maximum Torque to Failure: 409 ± 43 ^∗,# Nmm
  Maximum Torsional Rigidity: 41,007 ± 11,236 ^∗ Nmm^2/rad
[5]; [21]
  Percent Effective Shear Modulus: 20 ± 11 ^∗ Percent
  Percent Effective Shear Stress: 30 ± 12 ^∗,# Percent
  Percent Maximum Torque to Failure: 79 ± 12 ^∗ Percent
  Percent maximum torsional rigidity: 78 ± 10 ^∗ Percent
[5]; VAC 3.0 mg/kg local, no carrier, normal rats, 5 weeks
  Maximum Torsional Rigidity: 37,496 ± 12,846^∗ Nmm^2/rad
[5]; VAC therapeutic dosage range 0.5 to 3.0 mg/Kg
  increase in mechanical parameter of torsion: two to three-fold
